Reference: patent publication US9804176B2, “Assays for vitamin D epimers” (Siemens Healthcare Diagnostics Inc., priority 2014, dated 2017)
Values joined by “and” are separate entries in the source; they are usually repeats but may differ in a detail not shown here. Identical values can stand only once.

Tested on: biotinylated monoclonal anti-25OH vitamin D antibody
Assay: 25OH Vitamin D LOCI immunoassay, 3-epimer cross-reactivity, no anti-3-epimer antibody added
Type: binding, sheep
Settings: No anti-3-epimer VD Ab added; for Avg. Cross-reactivity: average of ten patient sera spiked with 100 ng/mL 3-epimer D3
Method: The 25OH Vitamin D (25(OH)D) immunoassay format employed was a homogeneous competitive chemiluminescent immunoassay based on LOCI® assay technology. The assay was performed on the Siemens Dimension® EXL automated integrated clinical chemistry system (Siemens Healthcare Diagnostics Inc., Deerfield, Ill.). The assay measured the total concentration of 25(OH)D2 and/or 25(OH)D3 in serum and plasma samples. The LOCI® assay reagents included a releasing reagent, two synthetic bead reagents and a biotinylated monoclonal anti-25OH vitamin D antibody reagent. The first bead reagent (designated “Sensibeads”) was coated with streptavidin and contained a photosensitive dye. The second bead reagent (designated “Chemibeads”) was coated with a 25(OH)D3 analog and contained chemiluminescent dye. Sample was incubated with the releasing reagent to release 25(OH)D molecules including 3-epimeric compounds from vitamin D binding proteins. The reaction mixture was then incubated with biotinylated antibody to form a 25(OH)D-biotinylated antibody complex. […] Chemibeads were added to bind excess free biotinylated antibody. Sensibeads were then added to bind to the biotin portion of the biotinylated antibody. Aggregates of Chemibead-analog/antibody-biotin/streptavidin-Sensibeads were formed as a result. […] The resulting chemiluminescent signal was measured at 612 nm and is inversely proportional to the concentration of total 25(OH)D in the sample.
Biotinvlation of anti-25(OH)D antibody—NHS-PEO4-biotin (Pierce Chemical Company, Rockford Ill.) was coupled with the anti-25(OH)D antibody (a sheep monoclonal antibody from Bioventix, Farnham, Surrey, UK). […] The concentration was measured on UV A280. […]
The effect of adding anti-3-epimer-VD antibody 8F10.1 (anti-3-epimer VD Ab) on the 3-epimer cross-reactivity for the assay is shown in Table 1. […] The 3-epimer cross-reactivity was calculated by the difference between 25(OH)D2 or 25(OH)D3 values with and without the spiked 3-epimer compound divided by the amount of added 3-epimer compound.

SMILES: C=C1CC[C@@H](O)C/C1=C/C=C1\CCC[C@]2(C)[C@@H]([C@H](C)CCCC(C)(C)O)CC[C@@H]12 [3-epimer D3, 3-epi-25-hydroxyvitamin D3]
- Avg. Cross-reactivity: 13.7%
- Avg. Cross-reactivity (listed as 3-epimer vitamin D3 compound): 13.7%
- Cross-Reactivity (individual patient serum spiked with 100 ng/mL 3-epimer D3): 17.9% (2×) and 11.9% and 12.6% and 16.1% and 10.2% and 9.1% and 10.5% and 15.3% and 15.5%
